Data taken from patent publication US9822130B2, “Triazolo-pyrazinyl derivatives useful as soluble guanylate cyclase activators” (Merck Sharp & Dohme Corp., priority 2014, dated 2017).

Target: T1, sGC α1/β1 heterodimer stably expressed in CHO-K1 cell line (CHO-K1/sGC) (Homo sapiens, UniProt Q02108+Q02153)
T1 construct: expressed in transfected cells
T1 sequence (Q02108 1-690): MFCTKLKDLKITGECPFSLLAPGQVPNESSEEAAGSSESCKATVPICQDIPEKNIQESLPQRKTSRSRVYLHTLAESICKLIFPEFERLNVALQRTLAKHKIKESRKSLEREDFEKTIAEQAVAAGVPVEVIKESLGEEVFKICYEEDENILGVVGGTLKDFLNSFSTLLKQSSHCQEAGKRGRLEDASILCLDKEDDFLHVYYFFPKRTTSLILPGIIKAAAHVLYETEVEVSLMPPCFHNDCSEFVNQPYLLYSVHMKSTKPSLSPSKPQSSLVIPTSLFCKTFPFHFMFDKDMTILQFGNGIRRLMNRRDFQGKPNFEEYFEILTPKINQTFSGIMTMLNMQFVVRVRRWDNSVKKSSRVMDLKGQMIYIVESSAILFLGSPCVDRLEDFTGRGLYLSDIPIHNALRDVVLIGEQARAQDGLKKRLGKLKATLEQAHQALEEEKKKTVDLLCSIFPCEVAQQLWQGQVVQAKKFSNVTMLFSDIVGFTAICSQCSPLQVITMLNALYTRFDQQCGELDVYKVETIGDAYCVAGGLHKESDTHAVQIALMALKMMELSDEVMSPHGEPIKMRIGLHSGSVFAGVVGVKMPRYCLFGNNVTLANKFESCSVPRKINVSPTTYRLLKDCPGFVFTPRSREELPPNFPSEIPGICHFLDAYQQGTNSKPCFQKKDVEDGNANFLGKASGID
T1 sequence (Q02153 1-619): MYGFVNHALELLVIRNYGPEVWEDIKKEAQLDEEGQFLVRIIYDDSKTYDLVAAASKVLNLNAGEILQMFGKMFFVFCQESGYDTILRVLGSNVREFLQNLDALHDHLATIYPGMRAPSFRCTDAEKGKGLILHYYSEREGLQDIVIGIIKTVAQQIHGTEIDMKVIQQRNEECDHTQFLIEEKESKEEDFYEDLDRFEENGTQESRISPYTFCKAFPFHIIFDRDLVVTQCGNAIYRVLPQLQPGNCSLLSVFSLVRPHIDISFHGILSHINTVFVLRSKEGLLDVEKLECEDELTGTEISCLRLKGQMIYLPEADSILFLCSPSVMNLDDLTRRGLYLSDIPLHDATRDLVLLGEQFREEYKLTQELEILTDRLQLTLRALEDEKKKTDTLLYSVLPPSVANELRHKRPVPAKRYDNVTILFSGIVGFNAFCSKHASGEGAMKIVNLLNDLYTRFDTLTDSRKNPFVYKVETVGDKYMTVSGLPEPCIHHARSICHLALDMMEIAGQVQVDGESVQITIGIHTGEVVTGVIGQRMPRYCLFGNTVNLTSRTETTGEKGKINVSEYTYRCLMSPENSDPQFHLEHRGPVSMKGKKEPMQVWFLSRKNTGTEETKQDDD
Assay: Cell-based sGC Functional Assay (CASA Assay), cGMP generation
Details: CHO-K1/sGC cells, 1 hr at 37° C., cGMP by HTRF, presence or absence of 1 μM DETA-NO not given; for EC50: 4P fit, read-out: IP (nM) (inflection point)
In short: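 CHO-K1 cells stably expressing human sGC α1/β1 (4×10^5/mL, 0.5 mM IBMX) were treated with compounds (2.5% DMSO final) ± 1 μM DETA-NO for 1 hr at 37° C. Intracellular cGMP measured by HTRF. Activity expressed as % of Compound A maximal cGMP; IP and maximum fold induction from 4P fit.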

CCCCc1nc(-c2nc(N)c3c(n2)NC(=O)C3(c2ccccn2)C2CC2)cn2ncnc12 (centres unmarked) [Example 116A, 4-amino-2-(8-butyl-[1,2,4]triazolo[1,5-a]pyrazin-6-yl)-5-cyclopropyl-5-(pyridin-2-yl)-5H-pyrrolo[2,3-d]pyrimidin-6(7H)-one]
EC50: 19.7 nM

N#Cc1ccc(C2(C3CC3)C(=O)Nc3nc(-c4cn5ncnc5c(CCCC(F)(F)F)n4)nc(N)c32)nc1 (centres unmarked) [Example 117A, 6-(4-Amino-5-cyclopropyl-6-oxo-2-(8-(4,4,4-trifluorobutyl)-[1,2,4]triazolo[1,5-a]pyrazin-6-yl)-6,7-dihydro-5H-pyrrolo[2,3-d]pyrimidin-5-yl)nicotinonitrile]
EC50: 49.2 nM

N#Cc1ccc(C2(C3CC3)C(=O)Nc3nc(-c4cn5ncnc5c(CCC(F)(F)C(F)(F)F)n4)nc(N)c32)nc1 (centres unmarked) [Example 118A, 6-(4-Amino-5-cyclopropyl-6-oxo-2-(8-(3,3,4,4,4-pentafluorobutyl)-[1,2,4]triazolo[1,5-a]pyrazin-6-yl)-6,7-dihydro-5H-pyrrolo[2,3-d]pyrimidin-5-yl)nicotinonitrile]
EC50: 84.1 nM

C[C@@]1(c2ccc(F)cc2)C(=O)Nc2nc(-c3cn4ncnc4c(CCC(F)(F)C(F)(F)F)n3)nc(O)c21 [Example 119A, (S)-5-(4-fluorophenyl)-4-hydroxy-5-methyl-2-(8-(3,3,4,4,4-pentafluorobutyl)-[1,2,4]triazolo[1,5-a]pyrazin-6-yl)-5,7-dihydro-6H-pyrrolo[2,3-d]pyrimidin-6-one]
EC50: 134 nM

CC1(c2ccc(Cl)cn2)C(=O)Nc2nc(-c3cn4ncnc4c(CCC(F)(F)C(F)(F)F)n3)nc(O)c21 (centres unmarked) [Example 120A, 5-(5-chloropyridin-2-yl)-4-hydroxy-5-methyl-2-(8-(3,3,4,4,4-pentafluorobutyl)-[1,2,4]triazolo[1,5-a]pyrazin-6-yl)-5H-pyrrolo[2,3-d]pyrimidin-6(7H)-one]
EC50: 155 nM

CC1(c2ccc(Cl)c(F)c2)C(=O)Nc2nc(-c3cn4ncnc4c(CCC(F)(F)C(F)(F)F)n3)nc(O)c21 (centres unmarked) [Example 121B, 5-(4-chloro-3-fluorophenyl)-4-hydroxy-5-methyl-2-(8-(3,3,4,4,4-pentafluorobutyl)-[1,2,4]triazolo[1,5-a]pyrazin-6-yl)-5H-pyrrolo[2,3-d]pyrimidin-6(7H)-one]
EC50: 130 nM

CC1(c2ccc(F)cn2)C(=O)Nc2nc(-c3cn4ncnc4c(CCC(F)(F)C(F)(F)F)n3)nc(O)c21 (centres unmarked) [Example 122B, 5-(5-fluoropyridin-2-yl)-4-hydroxy-5-methyl-2-(8-(3,3,4,4,4-pentafluorobutyl)-[1,2,4]triazolo[1,5-a]pyrazin-6-yl)-5H-pyrrolo[2,3-d]pyrimidin-6(7H)-one]
EC50: 141 nM
Emax (read-out: % Act. (percent activation relative to maximum cGMP production of Compound A = 100%)): 100%

O=C1Nc2nc(-c3cn4ncnc4c(CCC(F)(F)C(F)(F)F)n3)nc(O)c2C1(c1ccc(F)c(F)c1)C1CC1 (centres unmarked) [Example 123A, 5-cyclopropyl-5-(3,4-difluorophenyl)-4-hydroxy-2-(8-(3,3,4,4,4-pentafluorobutyl)-[1,2,4]triazolo[1,5-a]pyrazin-6-yl)-5H-pyrrolo[2,3-d]pyrimidin-6(7H)-one]
EC50: 204 nM

O=C1Nc2nc(-c3cn4ncnc4c(CCC(F)(F)C(F)(F)F)n3)nc(O)c2C1(c1cncc(F)c1)C1CC1 (centres unmarked) [Example 124B, 5-cyclopropyl-5-(5-fluoropyridin-3-yl)-4-hydroxy-2-(8-(3,3,4,4,4-pentafluorobutyl)-[1,2,4]triazolo[1,5-a]pyrazin-6-yl)-5H-pyrrolo[2,3-d]pyrimidin-6(7H)-one]
EC50: 1050 nM

CC1(c2cncc(F)c2)C(=O)Nc2nc(-c3cn4ncnc4c(CCC(F)(F)C(F)(F)F)n3)nc(O)c21 (centres unmarked) [Example 125A, 5-(5-fluoropyridin-3-yl)-4-hydroxy-5-methyl-2-(8-(3,3,4,4,4-pentafluorobutyl)-[1,2,4]triazolo[1,5-a]pyrazin-6-yl)-5H-pyrrolo[2,3-d]pyrimidin-6(7H)-one]
EC50: 575 nM
